From patent US9050298B2, “Method of treating ischemia/reperfusion injuries to a heart with netrin-1” (The Regents of the University of California, priority 2010, dated 2015)
Entries after “also recorded” stand apart in the source; their conditions may differ.

Experiments:
[1] = test system: Bovine aortic endothelial cells (BAEC); experiment: DCC expression in NO donor-treated BAECs; format: cell-based; conditions: NO donor 1 mmol/L, 2 hr
[2] = test system: isolated cardiomyocytes; experiment: DCC expression in NO donor-treated isolated cardiomyocytes; format: cell-based, mouse; conditions: NO donor 1 mmol/L, 2 hr
Method: NaCl 130, KCl 5.4, MgSO4 1, NaH2PO4 0.6, D-Glucose 10, HEPES 10, which was continuously bubbled with 95% O2+5% CO2. The enzymatic digestion was commenced by adding collagenase type II (Worthington Biochemical Corp., Lakewood, N.J., 0.56 mg/ml each) to the perfusion buffer and continued for 20 min. The heart was cut down and placed in the Petri dish with perfusion solution. The digested ventricular tissues were cut into 2-3 mm pieces and gently aspirated with a transfer pipette to facilitate cell dissociation. The myocytes were allowed to sediment by gravity for 8-10 min in the 15-ml Falcon tubes.

[3] = test system: infarct size post I/R insult; conditions: nitrite supplementation; cited from earlier work
[4] = test system: cardiac NO production; experiment: ESR detection of nitric oxide in Langendorff perfused heart homogenates; set-up: species or system mouse; conditions: agent prior to netrin-1, I/R; vs. untreated I/R controls
Method: Langendorff perfusion: The mice were anesthetized with intraperitoneal pentobarbitone (60 mg/kg). Hearts were harvested and rapidly transferred into ice-cold Krebs-Henseleit buffer (KHB). […] NaCl118.0, KCl 4.7, CaCl2 2.5, MgSO4 1.2, KH2PO4 1.2, NaHCO3 25.0, D-Glucose 10 at constant pressure (80±1 mmHg) using a peristaltic pump and feedback system. For no I/R setting, hearts were perfused with KHB or netrin-1 for 120 min. […] These experimental protocols are illustrated in FIG. 7. Electron spin resonance detection of nitric oxide radical: Bioavailable nitric oxide radical (NO) from cells or tissues was detected using electron spin resonance (ESR) as described. See Nguyen et al. (2006) PNAS USA 103:6530-5; and Youn et al. (2009) Circ. Res 104:50-59, which are herein incorporated by reference. […] Gently collected homogenates or cell suspensions were snap-frozen in liquid nitrogen and loaded into a finger Dewar for analysis with an eScan electron spin resonance (ESR) spectrophotometer (Bruker, Freemont, Calif.) at the following settings: center field, 3410; field sweep, 100 G; microwave frequency, 9.73 GHz; microwave power, 13.26 mW; modulation amplitude, 9.82 G; 512 points resolution and receiver gain, 356.

[5] = test system: mouse heart ischemia/reperfusion injury; experiment: Langendorff I/R, netrin-1 given post-conditionally at onset of reperfusion, TTC infarct size; conditions: for Infarct size, inhibitor alone: given at reperfusion without netrin-1; for Effect of netrin-1 postconditioning on infarct size, inhibitor co-treatment: inhibitor with netrin-1
From the text: FIG. 17 diagrammatically provides the experimental protocols of the isolated C57BL/6J WT, DCC +/+ and +/−mice heart experiments with netrin-1 added post-conditionally. Data included in up to FIG. 16 indicated preventative role of netrin-1 in cardiac I/R injury when netrin-1 was given pre-conditionally ([…]). These new set of experiments are however critical in understanding if netrin-1 exerts cardioprotective effects when delivered as a post-conditioning agent at the onset of reperfusion (i.e. together with PTCA procedure). All hearts were stabilized for 40 min prior to experiments. Control hearts received 20 min of global no-flow ischemia followed by 60 min of reperfusion. Netrin-1 was given at the onset of the reperfusion. The signaling pathway inhibitors were given either alone accordingly or with the netrin-1 treatment. The arrows indicate the time for myocardial infarct sizing with 2,3,5-TTC (TTC) and for protein analysis by Western blot (WB). ▪=global no-flow ischemia.
Langendorff perfused hearts isolated from C57BL/6J wild-type (WT) control mice or DCC +/−mice underwent 20-min of global ischemia followed by 60-min of reperfusion. DCC (deleted in colorectal cancer) is one of the netrin-1 receptors we found to be however specifically involved in netrin-1 preconditioning induced cardioprotection. Netrin-1 was infused postconditionally at the onset of reperfusion at 100 ng/mL concentration with and without U0126, a specific MEK1/2 inhibitor, or 2-Phenyl-4,4,5,5-tetramethylimidazoline-1-oxyl-3-oxide (PTIO), a nitric oxide (NO)-scavenger. Infarct size was determined to evaluate the severity of myocardial injury using TTC staining, and protein kinase activations determined by Western blot analysis.

[6] = test system: mouse heart ischemia/reperfusion injury; experiment: Langendorff perfused mouse heart, global ischemia/reperfusion, infarct size by TTC (netrin-1 pre-perfusion); conditions: agent 30 min prior to netrin-1 (100 ng/ml, 45 min), then I/R
Method: Langendorff perfusion: The mice were anesthetized with intraperitoneal pentobarbitone (60 mg/kg). Hearts were harvested and rapidly transferred into ice-cold Krebs-Henseleit buffer (KHB). […] NaCl118.0, KCl 4.7, CaCl2 2.5, MgSO4 1.2, KH2PO4 1.2, NaHCO3 25.0, D-Glucose 10 at constant pressure (80±1 mmHg) using a peristaltic pump and feedback system. For no I/R setting, hearts were perfused with KHB or netrin-1 for 120 min. […] These experimental protocols are illustrated in FIG. 7. Infarct size analysis: […] The heart slices were then digitally photographed for planimetry using NIH Image 1.62. Infarct size is expressed as an infarct-to-risk zone ratio (the risk zone is the whole ventricular volume in this global ischemic model).

[7] = test system: I/R-induced cardiac apoptosis; experiment: TUNEL apoptosis detection in post-I/R heart sections; set-up: species or system mouse; conditions: agent + netrin-1, I/R
Method: Detection of apoptosis: Apoptosis was detected by the apoptosis detection kit (Chemicon International, Inc., Billerica, Mass.) according to the manufacturer's protocol. At the end of the experimental protocols frozen heart sections (12 μm) were fixed with 1% formalin for 10 min at room temperature (RT) and washed twice in PBS, permeabilized with ethanol/acetic acid (2:1) for 5 min at −20° C., washed twice in PBS, and then incubated for >10 sec with the equilibration buffer. Subsequently, the sections were incubated for 1 hr with DIG-conjugated dUTP and TdT enzymes at 37° C., and then for 10 min in the stop buffer at room temperature (RT), and finally washed three times in PBS. The sections were then incubated with FITC-conjugated anti-DIG antibody for 30 min at RT, and washed three times in PBS. Cover-slipped sections were mounted with medium containing 0.5 μg/ml of propidium iodide. […] TUNEL assay was performed to determine whether netrin-1 inhibits apoptotic cell death induced by I/R. Left ventricular sections were incubated with FITC-conjugated anti-DIG antibody and coverslipped with the mounting medium containing 0.5 μg/ml of Propidium Iodide (PI).

[8] = test system: DCC/ERK1/2/eNOS pathway; experiment: Western blot / RT-PCR of DCC, ERK1/2, eNOS signalling in perfused hearts; set-up: species or system mouse; conditions: agent + netrin-1, I/R
Method: RT-PCR and Western blot: Total RNA was extracted from mouse hearts using TRIzol (Invitrogen, Carlsbad, Calif.) according to the manufacturer's instructions. Reverse transcription was performed in standard fashion with iScript cDNA Synthesis Kit (Bio-Rad, Hercules, Calif.). PCR was performed using the following primer pairs: PCRs were carried out on an iCycler (Bio-Rad, Hercules, Calif.) including primers generated for GAPDH, ((95° C./2 min), (95° C./25 sec, 57° C./5 sec, 68° C. 5 min)×35, (72° C./10 min)). Western blot analysis was performed as previously published. See Youn et al. (2009) Circ. Res 104:50-59, which is herein incorporated by reference. For no I/R setting, hearts were perfused with KHB or netrin-1 for 120 min. […] These experimental protocols are illustrated in FIG. 7.

[9] = test system: NOS; experiment: L-NAME sensitive superoxide production (NOS coupling state); set-up: species or system mouse; conditions: superoxide with and without L-NAME, I/R hearts
Method: Superoxide measurements with electron spin resonance (ESR): Superoxide production was measured from heart homogenates using ESR as previously described. Briefly, heart homogenate (10 μg) was mixed in a spin trap solution (CMH, 0.5 mmol/L), loaded into a glass capillary (Fisher Scientific) in the presence or absence of L-NAME (100 μmol/L), and assayed for superoxide using a Bio-Spin ESR spectorphotometer (Bruker) at the following settings: center field 3476; […]; frequency 9.75 GHz; microwave power 21.02 mW; modulation amplitude 2.47 G; 512 points resolution; receiver gain 1000. Netrin-1 attenuates I/R induced NOS uncoupling: To assess the coupling state of NOS under I/R and netrin-1-infused I/R conditions, superoxide production was measured with and without the addition of L-NAME, a general inhibitor of NOS. Under normal conditions when NOS is coupled, it produces nitric oxide (NO). Therefore, the addition of L-NAME will reduce the level of NO, resulting in an increase in measured superoxide production. On the other hand, if NOS is uncoupled and is producing superoxide, the addition of L-NAME will reduce measured superoxide. […] Using this method, the coupling state of whole heart homogenate from each condition was measured (n=5 each condition), with the results shown in FIG. 13.

[10] = test system: heart mitochondria; experiment: Mitochondrial swelling assay on mitochondria from perfused hearts; set-up: species or system mouse; conditions: isolated mitochondria, absorbance 540 nm
Method: Mitochondria isolation: Heart tissue was rinsed twice in ice cold PBS immediately after the end of the Langendorff experiment. The tissue was then homogenized in a pre-chilled glass homogenizer using isolation buffer I (sucrose 250 mM, EGTA 1 mM, HEPES10 mM, and Tris-HCl 10 mM, pH 7.4, 1 ml buffer/0.1 g tissue) on ice. The homogenate was then centrifuged at 800 g for 7 min at 4 C. The supernatant was then transferred to a new tube and centrifuged at 4000 g for 15 min at 4° C. The pellet was rinsed using 1 ml of isolation buffer II (sucrose 250 mM, HEPES 10 mM, Tris-HCl 10 mM, pH 7.4), then centrifuged again at 4000 g for 15 min at 4° C. Further purification was performed by resuspending the pellet with 3 ml of a 19% percoll solution, then layering this on top of a double layer of 30% and 60% percoll solution in a centrifugation tube. The entire tube was spun for 60 min at 1,000 g. The mitochondria layer in the tube was carefully removed. Percoll was washed from the sample by alternating centrifugation and resuspension with isolation buffer II. The final pellet was resuspended in isolation buffer II.
Mitochondrial swelling assay: 30 μg of freshly isolated mitochondria were mixed in a buffer containing 250 mM sucrose and 10 mM Tris (pH 7.4). The mixture was then incubated with 5 mM succinate for 1 minute at room temperature, then with 250 μM of CaCl2. Absorbance at 540 nm was measured immediately for 20 min at 1 minute intervals. Swelling was measured as a decrease in absorbance over time.

[11] = test system: mouse heart ischemia/reperfusion injury; experiment: Langendorff I/R, TTC infarct size, NOX4 siRNA or sepiapterin; conditions: TTC staining
[12] = test system: cardiac superoxide production; experiment: Superoxide measurement with ESR in heart homogenates after Langendorff I/R; set-up: species or system mouse; conditions: siRNA by tail vein, 2 injections
Method: Langendorff perfusion: Animals were initially anesthetized with isoflurane. Hearts from the animals were rapidly removed and transferred to ice cold modified Krebs-Henseleit buffer (KHB), consisting of (in mmol/L): NaCl118.0, KCl 4.7, CaCl2 2.5, MgSO4 1.2, Kh2PO4 1.2, NaHCO3 25.0, Glucose 10, pH 7.35. […] While under perfusion, the heart is kept in a 37° C. chamber. For no I/R, hearts were perfused with KHB for 120 min. […] These treatment protocols are illustrated in FIG. 11A. […] At the end of the Langendorff experiment, hearts were removed from the perfusion apparatus and immediately transferred onto ice awaiting homogenization. […] For Western blot analysis, the supernatant from the homogenate centrifuged at 13,000 rpm for 15 min at 4° C. was used. Superoxide measurements with electron spin resonance (ESR): Superoxide production was measured from heart homogenates using ESR as previously described. Briefly, heart homogenate (10 μg) was mixed in a spin trap solution (CMH, 0.5 mmol/L), loaded into a glass capillary (Fisher Scientific) in the presence or absence of L-NAME (100 μmol/L), and assayed for superoxide using a Bio-Spin ESR spectorphotometer (Bruker) at the following settings: center field 3476; […]; frequency 9.75 GHz; microwave power 21.02 mW; modulation amplitude 2.47 G; 512 points resolution; receiver gain 1000.

[13] = test system: NOX4; experiment: Western blot of NOX isoforms from whole heart homogenate; set-up: species or system mouse; conditions: NOX4 siRNA in vivo
From the text: Preparation of heart tissue for biochemical assays: At the end of the Langendorff experiment, hearts were removed from the perfusion apparatus and immediately transferred onto ice awaiting homogenization. For superoxide measurement and Western blot analysis, hearts were homogenized with ice cold homogenization buffer (Tris 50 mmol/L, EDTA 0.1 mmol/L, EGTA 0.1 mmol/L, protease inhibitor cocktail, pH 7.4) on ice using a glass homogenizer. For Western blot analysis, the supernatant from the homogenate centrifuged at 13,000 rpm for 15 min at 4° C. was used.
Western blot: Western blotting was performed as per standard protocols. Primary antibody for NOX4 (Abcam, Cambridge, Mass.) was used at a dilution of 1:1000. Primary antibody for actin (Sigma-Aldrich, St. Louis, Mo.) was used at a dilution of 1:3000. Secondary antibody conjugated to HRP (Bio-Rad, Hercules, Calif.) was used at a dilution of 1:2000 for NOX4, and 1:10000 for actin.

CNCCCCCCN(C)/[N+]([O-])=N/O [MAMANOATE]
DCC protein expression in cultured ECs [1]: increased DCC protein expression | DCC protein expression in cardiomyocytes [2]: increased DCC protein expression

O=NO [Nitrite]
reduction in infarct size post I/R insult [3]: 48%

CC1(C)N([O])C(c2ccccc2)=[N+]([O-])C1(C)C [PTIO, 2-phenyl-4,4,5,5-tetramethylimidazoline-1-oxyl 3-oxide]
Netrin-1 stimulated NO production in hearts pre-perfused with the agent [4]: attenuated | Infarct size, inhibitor alone [5]: no effect | Effect of netrin-1 postconditioning on infarct size, inhibitor co-treatment [5]: abolished

N#CC(=C(N)Sc1ccccc1N)C(C#N)=C(N)Sc1ccccc1N [U0126, 1,4-diamino-2,3-dicyano-1,4-bis (2-aminophenylthio)butadiene]
Infarct size / cardioprotection in netrin-1-perfused hearts pre-perfused with the agent [6]: 41.3±4.1% | Netrin-1 stimulated NO production in hearts pre-perfused with the agent [4]: 1.12±0.15 fold | TUNEL positive cells, agent prior to netrin-1 [7]: 19.24±2.4% | Netrin-1 increase in phosphorylated ERK1/2 and eNOSs1177, agent prior to netrin-1 [8]: inhibited | Netrin-1 restoration of DCC protein expression, agent prior to netrin-1 [8]: abolished | AKT phosphorylation after the entire I/R procedure ([8]; data not shown): unaffected | Infarct size, inhibitor alone [5]: no effect | Effect of netrin-1 postconditioning on infarct size, inhibitor co-treatment [5]: abolished

C[C@H](O)C(=O)C1=Nc2c(nc(N)[nH]c2=O)NC1 [sepiapterin]
NOS coupling state under I/R [9]: effective in recoupling NOS; also recorded: recouples NOS | Mitochondrial function (swelling) in I/R hearts [10]: improving mitochondria function; also recorded: improving mitochondrial function | Mitochondrial function (swelling) in I/R hearts ([10]; listed as Sepiapterin): restored mitochondria function; also recorded: effectively diminished mitochondrial dysfunction | Infarct size after I/R [11]: effective in reducing infarct size

NOX4 siRNA: in vivo grade siRNA against NOX4 (SEQ ID NO:19, 20) delivered with nanoparticle transfection kit (chain 1 CAUGCUGCUGCUGUUGCAUGUUUCA; chain 2 CCCUCUGAUGUAAUGGAACUCCGUA; nanoparticle delivery, further chemistry not given here)
superoxide levels in NOX4 siRNA treated hearts compared to controls [12]: increased | NOX4 protein expression in hearts of siRNA treated mice [13]: successful silencing | NOS coupling state under I/R [9]: functional NOS; also recorded: restored | Mitochondrial function (swelling) in I/R hearts [10]: marked improvement; also recorded: improved | Infarct size after I/R [11]: markedly reduced
